Test results taken from patent publication EP0550016A1, “Novel quinolone carboxylic acid derivatives and processes for preparing same” (KOREA RESEARCH INSTITUTE OF CHEMICAL TECHNOLOGY, priority 1991, dated 1993).
≈ marks a conversion by molar mass, not a printed value.

Legend:
Assay in all cases: In vitro anti-bacterial activity test (MIC, two-fold dilution method) against the standard strains
Format in all cases: cell-based
[1] = tested on: Streptococcus pyogenes 308 A; settings: Table 1 strain 1: Streptococcus pyogenes 308 A
[2] = tested on: Pseudomonas aeruginosa 1771; settings: Table 1 strain 14: Pseudomonas aeruginosa 1771
Escherichia coli OTEM = settings: Table 1 strain 10: Escherichia coli OTEM
[3] = tested on: Enterobacter cloacae 1321 E; settings: Table 1 strain 20: Enterobacter cloacae 1321 E
[4] = tested on: Pseudomonas aeruginosa 1771 M; settings: Table 1 strain 15: Pseudomonas aeruginosa 1771 M
[5] = tested on: Pseudomonas aeruginosa 1592 E; settings: Table 1 strain 13: Pseudomonas aeruginosa 1592 E
[6] = tested on: Klebsiella aerogenes 1082 E; settings: Table 1 strain 17: Klebsiella aerogenes 1082 E
[7] = tested on: Staphylococcus aureus 503; settings: Table 1 strain 6: Staphylococcus aureus 503; read-out: MIC
Escherichia coli DC 2 = settings: DC2; Table 1 strain 9: Escherichia coli DC 2; read-out: MIC
[8] = tested on: Staphylococcus aureus 285; settings: Table 1 strain 5: Staphylococcus aureus 285; read-out: MIC
Salmonella typhimurium = settings: Salmonella enterica; Table 1 strain 16: Salmonella typhimurium
[9] = tested on: Enterobacter cloacae P 99; settings: P99; Table 1 strain 19: Enterobacter cloacae P 99
[10] = tested on: Staphylococcus aureus SG 511; settings: SG511; Table 1 strain 4: Staphylococcus aureus SG 511
Escherichia coli 1507 E = settings: Table 1 strain 11: Escherichia coli 1507 E
[11] = tested on: Klebsiella aerogenes 1522 E; settings: Table 1 strain 18: Klebsiella aerogenes 1522 E
Escherichia coli DC 0 [12] = settings: DC0; Table 1 strain 7: Escherichia coli DC 0
[13] = tested on: Streptococcus faecium MD 8b; settings: Enterococcus faecium, MD8B; Table 1 strain 3: Streptococcus faecium MD 8b; read-out: MIC
[14] = tested on: Pseudomonas aeruginosa 9027; settings: Table 1 strain 12: Pseudomonas aeruginosa 9027
Escherichia coli DC 0 [15] = settings: DC0; Table 1 strain 8: Escherichia coli DC 0
[16] = tested on: Streptococcus pyogenes 77 A; settings: Table 1 strain 2: Streptococcus pyogenes 77 A; read-out: MIC

| SMILES | MIC [1] | MIC [2] | MIC (Escherichia coli OTEM) | MIC [3] | MIC [4] | MIC [5] | MIC [6] | MIC [7] | MIC (Escherichia coli DC 2) | MIC [8] | MIC (Salmonella typhimurium) | MIC [9] | MIC [10] | MIC (Escherichia coli 1507 E) | MIC [11] | MIC (Escherichia coli DC 0 [12]) | MIC [13] | MIC [14] | MIC (Escherichia coli DC 0 [15]) | MIC [16] |
| --- | --- | --- | --- | --- | --- | --- | --- | --- | --- | --- | --- | --- | --- | --- | --- | --- | --- | --- | --- | --- |
| CNC1CC12CCN(c1c(F)cc3c(=O)c(C(=O)O)cn4c3c1OC[C@@H]4C)C2 (stereo partly drawn) [Example 10, 9-fluoro-3-(S)-methyl-10-(1-methylamino-5-azaspiro[2,4]heptane-5-yl)-7-oxo-2,3-dihydro-7H-pyrido-[1,2,3-de]-1,4-benzoxazine-6-carboxylic acid] | 0.391 µg/mL (≈ 1.01 µM) | 1.56 µg/mL (≈ 4.03 µM) | 0.049 µg/mL (≈ 0.126 µM) | 0.025 µg/mL (≈ 0.0645 µM) | 0.781 µg/mL (≈ 2.02 µM) | 1.56 µg/mL (≈ 4.03 µM) | 0.007 µg/mL (≈ 0.0181 µM) | 0.049 µg/mL (≈ 0.126 µM) | 0.049 µg/mL (≈ 0.126 µM) | 0.049 µg/mL (≈ 0.126 µM) | 0.049 µg/mL (≈ 0.126 µM) | 0.049 µg/mL (≈ 0.126 µM) | 0.049 µg/mL (≈ 0.126 µM) | 0.098 µg/mL (≈ 0.253 µM) | 0.098 µg/mL (≈ 0.253 µM) | 0.025 µg/mL (≈ 0.0645 µM) | 0.195 µg/mL (≈ 0.503 µM) | 1.56 µg/mL (≈ 4.03 µM) | 0.391 µg/mL (≈ 1.01 µM) | 0.195 µg/mL (≈ 0.503 µM) |
| NC1CC12CCCN(c1c(F)cc3c(=O)c(C(=O)O)cn(C4CC4)c3c1F)C2 (centres unmarked) [Example 16, 7-(1-amino-5-azaspiro[2,5]octane-5-yl)-1-cyclopropyl-6,8-difluoro-1,4-dihydro-4-oxoquinoline-3-carboxylic acid] | 0.781 µg/mL (≈ 2.01 µM) | 3.12 µg/mL (≈ 8.03 µM) | 0.098 µg/mL (≈ 0.252 µM) | 0.049 µg/mL (≈ 0.126 µM) | 0.781 µg/mL (≈ 2.01 µM) | 3.12 µg/mL (≈ 8.03 µM) | 0.013 µg/mL (≈ 0.0334 µM) | 0.098 µg/mL (≈ 0.252 µM) | 0.195 µg/mL (≈ 0.501 µM) | 0.098 µg/mL (≈ 0.252 µM) | 0.049 µg/mL (≈ 0.126 µM) | 0.049 µg/mL (≈ 0.126 µM) | 0.098 µg/mL (≈ 0.252 µM) | 0.098 µg/mL (≈ 0.252 µM) | 0.098 µg/mL (≈ 0.252 µM) | 0.049 µg/mL (≈ 0.126 µM) | 0.391 µg/mL (≈ 1 µM) | 6.25 µg/mL (≈ 16.1 µM) | 1.56 µg/mL (≈ 4.01 µM) | 0.391 µg/mL (≈ 1 µM) |
| CNC1CC12CCN(c1cc3c(cc1F)c(=O)c(C(=O)O)cn3C1CC1)C2 (centres unmarked) [Example 11, 7-(1-methylamino-5-azaspiro[2,4]heptane-5-yl)-1-cyclopropyl-6-fluoro-1,4-dihydro-4-oxoquinoline-3-carboxylic acid] | 0.781 µg/mL (≈ 2.1 µM) | 3.12 µg/mL (≈ 8.41 µM) | 0.098 µg/mL (≈ 0.264 µM) | 0.049 µg/mL (≈ 0.132 µM) | 0.781 µg/mL (≈ 2.1 µM) | 3.12 µg/mL (≈ 8.41 µM) | 0.004 µg/mL (≈ 0.0108 µM) | 0.098 µg/mL (≈ 0.264 µM) | 0.195 µg/mL (≈ 0.525 µM) | 0.098 µg/mL (≈ 0.264 µM) | 0.098 µg/mL (≈ 0.264 µM) | 0.098 µg/mL (≈ 0.264 µM) | 0.098 µg/mL (≈ 0.264 µM) | 0.098 µg/mL (≈ 0.264 µM) | 0.098 µg/mL (≈ 0.264 µM) | 0.049 µg/mL (≈ 0.132 µM) | 0.781 µg/mL (≈ 2.1 µM) | 3.12 µg/mL (≈ 8.41 µM) | 1.56 µg/mL (≈ 4.21 µM) | 0.781 µg/mL (≈ 2.1 µM) |
| C[C@H]1COc2c(N3CCC4(CC4C(=O)O)C3)c(F)cc3c(=O)c(C(=O)O)cn1c23 (some centres unmarked) [Example 14] | 3.12 µg/mL (≈ 7.77 µM) | 12.5 µg/mL (≈ 31.1 µM) | 0.391 µg/mL (≈ 0.972 µM) | 0.195 µg/mL (≈ 0.485 µM) | 1.56 µg/mL (≈ 3.88 µM) | 6.25 µg/mL (≈ 15.5 µM) | 0.098 µg/mL (≈ 0.244 µM) | 0.098 µg/mL (≈ 0.244 µM) | 0.391 µg/mL (≈ 0.972 µM) | 0.098 µg/mL (≈ 0.244 µM) | 0.781 µg/mL (≈ 1.94 µM) | 0.391 µg/mL (≈ 0.972 µM) | 0.098 µg/mL (≈ 0.244 µM) | 0.781 µg/mL (≈ 1.94 µM) | 1.56 µg/mL (≈ 3.88 µM) | 0.195 µg/mL (≈ 0.485 µM) | 1.56 µg/mL (≈ 3.88 µM) | 12.5 µg/mL (≈ 31.1 µM) | 6.25 µg/mL (≈ 15.5 µM) | 1.56 µg/mL (≈ 3.88 µM) |
| NCC1CC12CCN(c1c(F)cc3c(=O)c(C(=O)O)cn(C4CC4)c3c1F)C2 (centres unmarked) [Example 15] | 0.781 µg/mL (≈ 2.01 µM) | 1.56 µg/mL (≈ 4.01 µM) | 0.098 µg/mL (≈ 0.252 µM) | 0.049 µg/mL (≈ 0.126 µM) | 0.391 µg/mL (≈ 1 µM) | 1.56 µg/mL (≈ 4.01 µM) | 0.025 µg/mL (≈ 0.0642 µM) | 0.195 µg/mL (≈ 0.501 µM) | 0.098 µg/mL (≈ 0.252 µM) | 0.195 µg/mL (≈ 0.501 µM) | 0.098 µg/mL (≈ 0.252 µM) | 0.195 µg/mL (≈ 0.501 µM) | 0.098 µg/mL (≈ 0.252 µM) | 0.098 µg/mL (≈ 0.252 µM) | 0.195 µg/mL (≈ 0.501 µM) | 0.049 µg/mL (≈ 0.126 µM) | 0.391 µg/mL (≈ 1 µM) | 1.56 µg/mL (≈ 4.01 µM) | 0.781 µg/mL (≈ 2.01 µM) | 0.195 µg/mL (≈ 0.501 µM) |
| NC1CC12CCN(c1nc3c(cc1F)c(=O)c(C(=O)O)cn3C1CC1)C2 (centres unmarked) [Example 6, 7-(1-amino-5-azaspiro[2,4]heptane-5-yl)-1-cyclopropyl-6-fluoro-4-oxo-1,4-dihydro-1,8-naphthyridine-3-carboxylic acid] | 0.391 µg/mL (≈ 1.09 µM) | 1.56 µg/mL (≈ 4.36 µM) | 0.025 µg/mL (≈ 0.0698 µM) | < 0.002 µg/mL | 0.195 µg/mL (≈ 0.544 µM) | 1.56 µg/mL (≈ 4.36 µM) | 0.391 µg/mL (≈ 1.09 µM) | 0.049 µg/mL (≈ 0.137 µM) | 0.098 µg/mL (≈ 0.273 µM) | 0.049 µg/mL (≈ 0.137 µM) | 0.025 µg/mL (≈ 0.0698 µM) | 0.007 µg/mL (≈ 0.0195 µM) | 0.049 µg/mL (≈ 0.137 µM) | 0.025 µg/mL (≈ 0.0698 µM) | 0.025 µg/mL (≈ 0.0698 µM) | < 0.002 µg/mL | 0.195 µg/mL (≈ 0.544 µM) | 1.56 µg/mL (≈ 4.36 µM) | 0.391 µg/mL (≈ 1.09 µM) | 0.195 µg/mL (≈ 0.544 µM) |
| NC1CC12CCN(c1cc3c(cc1F)c(=O)c(C(=O)O)cn3C1CC1)C2 (centres unmarked) [Example 5, 7-(1-amino-5-azaspiro[2,4]heptane-5-yl)-1-cyclopropyl-6-fluoro-1,4-dihydro-4-oxoquinoline-3-carboxylic acid] | 0.391 µg/mL (≈ 1.09 µM) | 1.56 µg/mL (≈ 4.37 µM) | 0.049 µg/mL (≈ 0.137 µM) | 0.025 µg/mL (≈ 0.07 µM) | 0.391 µg/mL (≈ 1.09 µM) | 1.56 µg/mL (≈ 4.37 µM) | 0.004 µg/mL (≈ 0.0112 µM) | 0.098 µg/mL (≈ 0.274 µM) | 0.098 µg/mL (≈ 0.274 µM) | 0.098 µg/mL (≈ 0.274 µM) | 0.049 µg/mL (≈ 0.137 µM) | 0.049 µg/mL (≈ 0.137 µM) | 0.098 µg/mL (≈ 0.274 µM) | 0.098 µg/mL (≈ 0.274 µM) | 0.049 µg/mL (≈ 0.137 µM) | 0.025 µg/mL (≈ 0.07 µM) | 0.195 µg/mL (≈ 0.546 µM) | 1.56 µg/mL (≈ 4.37 µM) | 0.781 µg/mL (≈ 2.19 µM) | 0.391 µg/mL (≈ 1.09 µM) |
